Data set [1] in a line: Immuno-modulation activity in human PBMC assessed as increase in cell proliferation at 10 uM after 48 hrs by MTT assay relative to control. The format is functional. On the technique in general: Formazan colour is commonly taken as a measure of viable cells.
A short description of data set [2]: Immunomodulation-mediated anticancer activity against human MCF7 cells assessed as human PBMC-mediated inhibition of cancer cell viability at 10 uM pretreated with effector PBMC cells for 48 hrs followed by co-culturing of target cancer cells with PBMC at ratio of 1:10 and measured after 24 hrs by MTT assay (reference value: 5%). The format is functional.
Another data set has as its system A549. Briefly: Immunomodulation-mediated anticancer activity against human A549 cells assessed as human PBMC-mediated inhibition of cancer cell viability at 10 uM pretreated with effector PBMC cells for 48 hrs followed by co-culturing of target cancer cells with PBMC at ratio of 1:10 and measured after 24 hrs by […] (reference value: 5%). The data set is classed as functional. Background: An ELISA detects its analyte on a solid surface through an enzyme-linked reagent.

Data set [3] can be described thus: Immuno-modulation activity in human PBMC assessed as increase in IFNgamma secretion at 10 uM after 48 hrs by ELISA relative to control. The format is functional.
Data set [4] in a line: Immuno-modulation activity in human PBMC assessed as increase in IL-2 secretion at 10 uM after 48 hrs by ELISA relative to control. The data set is classed as functional.
A short description of data set [5]: Immunomodulation-mediated anticancer activity against human MCF7 cells assessed as human PBMC-mediated increase in ROS generation at 10 uM pretreated with effector PBMC cells for 48 hrs followed by co-culturing of target cancer cells with PBMC at ratio of 1:10 for 6 hrs by DCFH-DA staining based fluorometric analysis (reference value: 7%). The data set is classed as functional.

Data set [6] in a line: Immunomodulation-mediated anticancer activity against human MCF7 cells assessed as human PBMC-mediated decrease in mitochondrial membrane potential at 10 uM pretreated with effector PBMC cells for 6 hrs followed by co-culturing of target cancer cells with PBMC at ratio of 1:10 for 24 hrs by rhodamine 123 staining based fluorometric analysis (reference value: 5%). The data set is classed as functional.

Data set [7] in a line: Immunomodulation-mediated anticancer activity against human MCF7 cells assessed as human PBMC-mediated cell cycle arrest by measuring proportion of cells at G0G1 phase at 10 uM pretreated with effector PBMC cells for 48 hrs followed by co-culturing of target cancer cells with PBMC at ratio of 1:10 for 24 hrs by propidium iodide staining based flow cytometry (reference value: 64.6%). The format is functional. For orientation: A flow cytometer gives signals particle by particle.

Data set [8] in a line: Cytotoxicity against human MCF7 cells assessed as reduction in cell viability at 5 to 20 uM measured after 24 hrs by MTT assay relative to control. The data set is classed as cell-based. Conditions: dose 5-20 µM, read-out: INH.
Data set [9] is described as follows: Immunomodulation-mediated anticancer activity against human MCF7 cells assessed as human PBMC-mediated inhibition of cancer cell viability at 10 uM pretreated with effector PBMC cells for 48 hrs followed by co-culturing of target cancer cells with PBMC at ratio of 1:2.5 to 1:20 and measured after 24 hrs by MTT assay. The data set is classed as functional.
The nature of data set [10]: Immunomodulation-mediated anticancer activity against human MCF7 cells assessed as human PBMC-mediated cell cycle arrest by measuring proportion of cells at G2M phase at 10 uM pretreated with effector PBMC cells for 48 hrs followed by co-culturing of target cancer cells with PBMC at ratio of 1:10 for 24 hrs by propidium iodide staining based flow cytometry (reference value: 10.5%). The data set is classed as functional.

A short description of data set [11]: Immunomodulation-mediated anticancer activity against human MCF7 cells assessed as human PBMC-mediated cell cycle arrest by measuring proportion of cells at S phase at 10 uM pretreated with effector PBMC cells for 48 hrs followed by co-culturing of target cancer cells with PBMC at ratio of 1:10 for 24 hrs by propidium iodide staining based flow cytometry (reference value: 19.6%). The format is functional.

A short description of data set [12]: Immunomodulation-mediated anticancer activity against human MCF7 cells assessed as human PBMC-mediated cell cycle arrest by measuring proportion of cells at subbG1 phase at 10 uM pretreated with effector PBMC cells for 48 hrs followed by co-culturing of target cancer cells with PBMC at ratio of 1:10 for 24 hrs by propidium iodide staining based flow cytometry (reference value: 4.8%). The data set is classed as functional.

A short description of data set [13]: Immunomodulation-mediated anticancer activity against human MCF7 cells assessed as human PBMC-mediated cell cycle arrest by measuring increase in proportion of cells at subG1 phase at 10 uM pretreated with effector PBMC cells for 48 hrs followed by co-culturing of target cancer cells with PBMC at ratio of 1:10 for 24 hrs by propidium iodide staining based flow cytometry relative to control. The data set is classed as functional.

In another data set the test system is PBMC. Briefly: Immuno-modulation activity in human PBMC assessed as increase in cell proliferation at 20 uM after 48 hrs by MTT assay. The format is functional, tissue-based.

Active and inactive are the calls of the source. The calls are words filed in the database; no cut-off is given here.

The values that follow come from ChEMBL document CHEMBL4725244, “Immunomodulation-mediated anticancer activity of a novel compound from Brugmansia suaveolens leaves” (Bioorg Med Chem, 2020).

Broadly, the inhibition is the percentage by which the read-out fell short of the control.

For the molecule `COc1ccc(OC)c2c1OC(=O)CC[C@H](O)C2=O`, the Activity is 92% in data set [1]; 79% in data set [5]; 51.8% in data set [7]; “<=70%” in data set [9]; 59% in [10]; 13.2% in data set [11]. For the same molecule, the Activity in [12] was found to be 28.4%. Besides, the inhibition at 10 µM in [2] turned out to be 67%; in the data set with A549, 32%; in data set [6], 66%. Moreover, the “fold change (FC)” value in [3] is 3; in data set [4], 3; in [13], 5. In data set [8], the cytotoxicity at 24 h, up to 20 µM is under 30%. Moreover, the outcome in the data set on PBMC was Active.
